Measured values reported in patent publication US6395745B1, “Alkaloid halide salts of swainsonine and methods of use” (priority 1997, dated 2002).
Converted amounts (≈) assume the structure as drawn. Where a name gives a salt, the structure may show the parent alone.

Legend:
[1] = Accelerated stability of stressed solid samples, percentage remaining by HPLC; type: physicochemical; conditions: for percentage remaining, condition (e): 40° C. with 75% relative humidity for seven days; for percentage remaining, condition (d): 70° C. with low humidity for seven days; for percentage remaining, condition (c): 105° C. under nitrogen for seven days (*=average of two samples); for percentage remaining, condition (b): 105° C. with atmospheric oxygen for seven days (*=average of two samples); for percentage remaining, condition (a): UV light for 7 days
Description: Samples of swainsonine free base synthesized using synthetic routes developed by Dr. David Dime (Toronto Research Chemicals, Toronto, Ontario) and Dr. William Pearson (University of Michigan, Ann Arbor, Mich.), were recrystallized to obtain either the hydrochloride salt, the hydrobromide salt or the free base of swainsonine. Samples were weighed and exposed to the conditions described below.
To model long-term stability or shelf life, various conditions were used to accelerate the decomposition process. Samples of crystalline prism swainsonine hydrochloride salt and swainsonine free base (a white, fluffy powder obtained from swainsonine hydrochloride were recrystallized from chloroform-methanol-diethyl ether) were weighed and exposed to conditions described below (stressed samples). Unstressed samples were prepared at 1 mg/ml concentration and chromatographed in sextuplicate on each run. After the indicated time interval each stressed sample was diluted with mobile phase at the same concentration as the unstressed sample. The percentage remaining swainsonine hydrochloride or swainsonine free base was calculated based on the percentage of either the hydrochloride or the free base in the unstressed sample.
The conditions included (a) UV light for 7 days; (b) 105° C. with atmospheric oxygen for seven days (*=average of two samples); (c) 105° C. under nitrogen for seven days (*=average of two samples); (d) 70° C. with low humidity for seven days; and (e) 40° C. with 75% relative humidity for seven days. Other tests include (f) UV for 24 hours; (g) 100° C. aqueous solution for two hours; (h) aqueous acidic treatment for 24 hours; (i) aqueous alkali treatment for 4 hours; and (j) (aqueous) 3% hydrogen peroxide for 4 hours. […] The physical properties of swainsonine hydrochloride compared to the free base and swainsonine hydrobromide, and swainsonine hydrofluoride are shown in Table 5.

tumor cell invasion = conditions: in vitro; cited from earlier work
[2] = Solubility in distilled water at room temperature; type: physicochemical; conditions: distilled water, water
Procedure: The melting point of the clear swainsonine hydrochloride crystal (prism) was 190-191° C. The solubility of swainsonine hydrochloride in distilled water at room temperature was about 3 g/ml, in contrast to the solubility of swainsonine free base, which is about 0.8 g/ml (see Table 5).

[3] = mouse, in vivo; cited from earlier work
[4] = mouse, in vivo; cited from earlier work; remark: listed apart in the source
human MeWo melanoma = conditions: orally or by mini-osmotic pumps; cited from earlier work
[5] = test system: granulocyte-macrophage progenitor cells (CFU-GM); test: Murine bone marrow progenitor cell assay in methylcellulose, CFU-GM; type: cell-based, C57BL/6 mouse; conditions: FIG. 11
Procedure: (§1) The healthy and GD0039 treated mice were euthanized by CO2 asphyxiation. Bone marrow (BM) cell suspensions were prepared under sterile conditions by flushing both femurs and tibiae with IMDM/FBS using a 26 gauge needle. Single cell suspensions were made up to 10.0 ml IMDM/FBS. The concentration of nucleated cells in each suspension was determined by triplicate counts on a hemocytometer. A portion of the cells was further diluted in media to the appropriate concentration before plating for the progenitor assay.
Colony-forming units (CFUs) were estimated by the methylcellulose method. One milliliter suspensions, containing 2×10^5 nucleated BM cells, in 0.1 ml of IMDM and 0.9 ml MethoCult (M3330), were plated in triplicate in 35 mm tissue culture dishes. Swainsonine hydrochloride or swainsonine were added to certain plates, in 0.1 ml of IMDM at concentrations of 30 μg/ml and 3 μg/ml, which gave final concentrations of […]. The MethoCult M3330 contains 30% FBS and 10 μg/ml erythropoietin and is designed for the growth of early erythroid progenitor cells (CFU-E), which were scored after 3 days of incubation at 37° C. in a humidified atmosphere containing 5% CO2. […] Colonies containing more than 20 cells were scored using an inverted microscope with brightfield optics and 40× or 100× magnification. […]

LAK cell = conditions: cited from earlier work
NK cell = conditions: cited from earlier work
murine tumor cells = conditions: organ-colonization and spontaneous metastasis assays; cited from earlier work
[6] = test system: early erythroid progenitor cells (CFU-E); test: Murine bone marrow progenitor cell assay in methylcellulose, CFU-E; type: cell-based, C57BL/6 mice
Procedure: Pathogen-free C57BL/6 female mice, 8-9 weeks old, obtained from Jackson Laboratories were used. The room environment and photoperiod were controlled: 24° C.; humidity, 50±20%; 12 hr light and 12 hr dark. Mice were housed one per cage with ad libitum accesses to standard pelleted commercial laboratory diet and to sterile (autoclaved) tap water.
Swainsonine hydrochloride was manufactured by Seres Laboratories, Calif. FBS and methylcellulose (MethoCult M3330) were purchased from Stem Cell Technologies, Inc. (Vancouver. BC). Iscove's modified Dulbecco's medium was prepared using powdered media from Gibco BRL, deionized water and filter sterilization. For the handling of cells, the media was supplemented with 2% FBS and 50 μM β-mercaptoethanol (referred to as IMDM/FBS).
as §1
Colony-forming units (CFUs) were estimated by the methylcellulose method. One milliliter suspensions, containing 2×10^5 nucleated BM cells, in 0.1 ml of IMDM and 0.9 ml MethoCult (M3330), were plated in triplicate in 35 mm tissue culture dishes. […] The MethoCult M3330 contains 30% FBS and 10 μg/ml erythropoietin and is designed for the growth of early erythroid progenitor cells (CFU-E), which were scored after 3 days of incubation at 37° C. in a humidified atmosphere containing 5% CO2. […] Colonies containing more than 20 cells were scored using an inverted microscope with brightfield optics and 40× or 100× magnification.

[7] = test system: splenic and bone marrow (BM) cell; conditions: cited from earlier work
HT29m colon carcinoma = conditions: orally or by mini-osmotic pumps; cited from earlier work

In the case of O[C@H]1[C@H]2[C@H](O)CCCN2C[C@H]1O [swainsonine hydrobromide, Swainsonine hydrobromide salt], the “percentage remaining, condition (e)” value ([1]; hydrobromide salt) was 91.4%, the “percentage remaining, condition (d)” value ([1]; hydrobromide salt) was 95.5% and the “percentage remaining, condition (c)” value ([1]; hydrobromide salt) was 92.1%. The “percentage remaining, condition (b)” value ([1]; hydrobromide salt) was 88.3% and the “percentage remaining, condition (a)” value ([1]; hydrobromide salt) was 71.1%.
In the case of O[C@H]1[C@H]2[C@H](O)CCCN2C[C@H]1O [swainsonine], the “tumor cell invasion through extracellular matrix” value (tumor cell invasion) is listed as “block tumor cell invasion”, the solubility ([2]; Table 5) is listed as 800 mg/mL (≈ 4620 mM) and the solubility ([2]; room temperature) is listed as about 800 mg/mL (≈ 4620 mM). For the same molecule, the “lethal doses of irradiation” value [3] was “protect”, the “lethality of various chemotherapeutic agents” value [4] was “protect against the lethality” and the “growth rate of tumor xenografts” value (human MeWo melanoma) was “inhibited the growth rate”. For the same molecule, the “effect on granulocyte-macrophage progenitor cells in vitro” value [5] was “stimulate”, the LAK cell activity (LAK cell) was “increase” and the NK cell activity (NK cell) was “increase”. The “percentage remaining, condition (e)” value ([1]; listed as SW) was 102.5%, the “percentage remaining, condition (d)” value ([1]; listed as SW) was 98.5% and the “percentage remaining, condition (c)” value ([1]; listed as SW) was 9.7%*. The “percentage remaining, condition (b)” value ([1]; listed as SW) was 20.0%*, the “percentage remaining, condition (a)” value ([1]; listed as SW) was 99.3% and the “metastatic potential of treated murine tumor cells” value (murine tumor cells) was “less metastatic”. For the same molecule, the “increase in the number of early CFU-E” value ([6]; 0.03 μg/ml to 10 μg/ml in vitro) was about 3 fold, the “number of early CFU-E, counted on day 3” value ([6]; added to methylcellulose in vitro) was “significantly increased” and the “mean CFU-E of triplicate counts ± SD from 2 × 10^5 nucleated BM cells” value (shortened to “mean CFU-E of triplicate counts ± SD”) ([6]; mouse 1 (control), 0.3 μg/ml in vitro, in vitro control 54 ± 12) was 108 ± 21. For the same molecule, the “mean CFU-E of triplicate counts ± SD” value ([6]; mouse 1 (control), 3 μg/ml in vitro, in vitro control 54 ± 12) was 101 ± 12, the “mean CFU-E of triplicate counts ± SD” value ([6]; mouse 2 (GD0039 treated in vivo, 20 μg/day for four days), 0.3 μg/ml in vitro) was 71 ± 15 and the “mean CFU-E of triplicate counts ± SD” value ([6]; mouse 2 (GD0039 treated in vivo, 20 μg/day for four days), 3 μg/ml in vitro) was 103 ± 1. The “splenic and bone marrow (BM) cell proliferation” value [7] was “increase” and the “growth rate of tumor xenografts” value (HT29m colon carcinoma) was “inhibited the growth rate”.
